Results reported in US9994691B2, “Antimicrobial cleansing composition” (Conopco, Inc., d/b/a UNILEVER, priority 2014, dated 2018).

Description: Disclosed antimicrobial cleansing composition includes 0.1 to 100 ppm silver (I) compound. […] More particularly, silver ion solubility [Ag+], a value given in mol/L may be calculated using the formula: [Ag+]=(Ksp·x)^(1/(x+1))

[Cl][Ag] [Silver chloride]
Silver Ion Solubility [Ag+]: 13 µM
